Data reported in US12077503B2, “Substituted cyclic amides and their use as herbicides” (FMC CORPORATION, priority 2015, dated 2024).
Like-named read-outs stand apart in the source and are kept apart here.

What was measured:
Experiment in all cases: Test A postemergence
Assay type in all cases: in vivo
[1] = test system: Galium (catchweed bedstraw, Galium aparine); conditions: Galium, post-emergence, 240 h; for pest or weed control at 125 g/ha: 125 g ai/ha; for pest or weed control at 500 g/ha: 500 g ai/ha, visual injury, approx. 10 d; for pest or weed control at 31 g/ha: 31 g ai/ha, visual injury after approx. 10 d, 0 to 100 scale, 0 no effect, 100 complete control
Method in brief: (§1)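 Preemergence directed soil spray on seeded pots, or postemergence application to plants 2–10 cm, one- to two-leaf. Solvent mixture non-phytotoxic, with surfactant. Scored ~10 d later, visually, 0–100 vs untreated.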

Kochia (Kochia scoparia) = conditions: Bassia scoparia, post-emergence, 240 h; for pest or weed control at 125 g/ha: 125 g ai/ha; for pest or weed control at 500 g/ha: 500 g ai/ha, visual injury, approx. 10 d; for pest or weed control at 31 g/ha: 31 g ai/ha, visual injury after approx. 10 d, 0 to 100 scale, 0 no effect, 100 complete control
Method in brief: as §1

[2] = test system: barnyardgrass (Echinochloa crus-galli); conditions: Echinochloa crus-galli, post-emergence, 240 h; for pest or weed control at 125 g/ha: 125 g ai/ha; for pest or weed control at 500 g/ha: 500 g ai/ha, visual injury, approx. 10 d; for pest or weed control at 31 g/ha: 31 g ai/ha, visual injury after approx. 10 d, 0 to 100 scale, 0 no effect, 100 complete control
Method in brief: as §1

corn (Zea mays) = conditions: Zea mays, post-emergence, 240 h; for plant injury at 125 g/ha / Corn plant response rating (crop injury, 0 = no effect, 100 = complete kill) at 125 g/ha: 125 g ai/ha; for Corn plant response rating (crop injury, 0 = no effect, 100 = complete kill) at 500 g/ha: 500 g ai/ha, visual injury, approx. 10 d; for Corn plant response rating (crop injury, 0 = no effect, 100 = complete kill) at 125 g/ha: visual injury after approximately 10 d; for Corn plant response rating (crop injury, 0 = no effect, 100 = complete kill) at 31 g/ha: 31 g ai/ha, visual injury after approx. 10 d, 0 to 100 scale, 100 complete control
Method in brief: as §1

[3] = test system: ragweed (common ragweed, Ambrosia elatior); conditions: Ambrosia artemisiifolia, post-emergence, 240 h; for pest or weed control at 125 g/ha: 125 g ai/ha; for pest or weed control at 500 g/ha: 500 g ai/ha, visual injury, approx. 10 d; for pest or weed control at 31 g/ha: 31 g ai/ha, visual injury after approx. 10 d, 0 to 100 scale, 0 no effect, 100 complete control
Method in brief: as §1

[4] = Postemergence, 0 to 100 scale (0 no effect, 100 complete control), read-out: Plant response rating, Galium
[5] = Postemergence, 0 to 100 scale (0 no effect, 100 complete control), read-out: Plant response rating, Kochia
[6] = Postemergence, 0 to 100 scale (0 no effect, 100 complete control), read-out: Plant response rating, Barnyardgrass
[7] = Postemergence, 0 to 100 scale (0 no effect, 100 complete control)
[8] = Postemergence, 0 to 100 scale (0 no effect, 100 complete control), read-out: Plant response rating, Ragweed
[9] = Postemergence, visual injury after approximately 10 d, 0 to 100 scale where 0 is no effect and 100 is complete control, read-out: Plant response rating, Galium
[10] = Postemergence, visual injury after approximately 10 d, 0 to 100 scale where 0 is no effect and 100 is complete control, read-out: Plant response rating, Kochia
[11] = Postemergence, visual injury after approximately 10 d, 0 to 100 scale where 0 is no effect and 100 is complete control, read-out: Plant response rating, Barnyardgrass
[12] = Postemergence, 0 to 100 scale where 0 is no effect and 100 is complete control
[13] = Postemergence, visual injury after approximately 10 d, 0 to 100 scale where 0 is no effect and 100 is complete control, read-out: Plant response rating, Ragweed
[14] = postemergence, visual injury rating after approximately 10 d, read-out: Galium plant response rating (0 to 100 scale, 0 no effect, 100 complete control)
[15] = Postemergence, read-out: Plant response rating, Galium
[16] = postemergence, visual injury rating after approximately 10 d, read-out: Kochia plant response rating (0 to 100 scale, 0 no effect, 100 complete control)
[17] = Postemergence, read-out: Plant response rating, Kochia
[18] = postemergence, visual injury rating after approximately 10 d, read-out: Barnyardgrass plant response rating (0 to 100 scale, 0 no effect, 100 complete control)
[19] = Postemergence, read-out: Plant response rating, Barnyardgrass
[20] = postemergence, visual injury rating after approximately 10 d, read-out: Corn plant response rating (0 to 100 scale, 0 no effect, 100 complete control)
[21] = postemergence, visual injury rating after approximately 10 d, read-out: Ragweed plant response rating (0 to 100 scale, 0 no effect, 100 complete control)
[22] = Postemergence, read-out: Plant response rating, Ragweed
[23] = postemergence, visual injury after approximately 10 d, 0 to 100 scale (0 no effect, 100 complete control), read-out: Plant response rating, Galium
[24] = postemergence, visual injury after approximately 10 d, 0 to 100 scale (0 no effect, 100 complete control), read-out: Plant response rating, Kochia
[25] = postemergence, visual injury after approximately 10 d, 0 to 100 scale (0 no effect, 100 complete control), read-out: Plant response rating, Barnyardgrass
[26] = postemergence, 0 to 100 scale (0 no effect, 100 complete control)
[27] = postemergence, visual injury after approximately 10 d, 0 to 100 scale (0 no effect, 100 complete control), read-out: Plant response rating, Ragweed

Q: Which results are given for `Cc1nc([C@H]2CN(C)C(=O)[C@@H]2C(=O)Nc2ccccc2F)cs1` [Compound 1280]?
A: pest or weed control at 125 g/ha ([1]; Postemergence, visual rating about 10 d after treatment, read-out: Galium plant response rating (0 to 100 scale)): 0%; pest or weed control at 500 g/ha [1, 4]: 0%; pest or weed control at 125 g/ha (Kochia (Kochia scoparia); Postemergence, visual rating about 10 d after treatment, read-out: Kochia plant response rating (0 to 100 scale)): 0%; pest or weed control at 500 g/ha (Kochia (Kochia scoparia); [5]): 0%; pest or weed control at 125 g/ha ([2]; Postemergence, visual rating about 10 d after treatment, read-out: Barnyardgrass plant response rating (0 to 100 scale, 0 no effect, 100 complete control)): 0%; pest or weed control at 500 g/ha [2, 6]: 40%; plant injury at 125 g/ha (corn (Zea mays); Postemergence, visual rating about 10 d after treatment, read-out: Corn plant response rating (0 to 100 scale)): 0%; Corn plant response rating (crop injury, 0 = no effect, 100 = complete kill) at 500 g/ha (corn (Zea mays); [7]): 0%; pest or weed control at 125 g/ha ([3]; Postemergence, visual rating about 10 d after treatment, read-out: Ragweed plant response rating (0 to 100 scale)): 0%; pest or weed control at 500 g/ha [3, 8]: 0%

Q: How did the pest or weed control at 125 g/ha [1, 9] turn out when `CN1CC[C@H](c2cccc(Cl)c2)[C@@H](C(=O)Nc2ccccc2S(C)(=O)=O)C1=O` [Compound 923] was run?
A: 0%

Q: And the pest or weed control at 125 g/ha (Kochia (Kochia scoparia); [10])?
A: 0%

Q: What about the pest or weed control at 125 g/ha [2, 11] of the same compound?
A: 0%

Q: And the Corn plant response rating (crop injury, 0 = no effect, 100 = complete kill) at 125 g/ha (corn (Zea mays); [12])?
A: 0%

Q: And the pest or weed control at 125 g/ha [3, 13]?
A: 0%

Q: `CN1CC[C@H](c2cccc(Cl)c2)[C@@H](C(=O)Nc2ccccc2F)C1=O` [Compound 922] was tested. Which pest or weed control at 125 g/ha [1, 9] did it give?
A: 0%

Q: What about the pest or weed control at 125 g/ha (Kochia (Kochia scoparia); [10]) of the same compound?
A: 0%

Q: What about the pest or weed control at 125 g/ha [2, 11] of the same compound?
A: 90%

Q: And the Corn plant response rating (crop injury, 0 = no effect, 100 = complete kill) at 125 g/ha (corn (Zea mays); [12])?
A: 0%

Q: And the pest or weed control at 125 g/ha [3, 13]?
A: 0%

Q: `CSc1ccccc1NC(=O)[C@H]1C(=O)N(C)CC[C@@H]1c1ccc2c(c1)OC(F)(F)O2` [Compound 814] was tested. Which pest or weed control at 125 g/ha [1, 14] did it give?
A: 0%

Q: What about the pest or weed control at 31 g/ha [1, 15] of the same compound?
A: 0%

Q: And the pest or weed control at 125 g/ha (Kochia (Kochia scoparia); [16])?
A: 0%

Q: And the pest or weed control at 31 g/ha (Kochia (Kochia scoparia); [17])?
A: 0%

Q: And the pest or weed control at 125 g/ha [2, 18]?
A: 0%

Q: And the pest or weed control at 31 g/ha [2, 19]?
A: 0%

Q: What about the plant injury at 125 g/ha (corn (Zea mays); [20]) of the same compound?
A: 0%

Q: What about the Corn plant response rating (crop injury, 0 = no effect, 100 = complete kill) at 31 g/ha (corn (Zea mays); Postemergence) of the same compound?
A: 0%

Q: What about the pest or weed control at 125 g/ha [3, 21] of the same compound?
A: 0%

Q: What about the pest or weed control at 31 g/ha [3, 22] of the same compound?
A: 0%

Q: How did the pest or weed control at 125 g/ha ([1]; postemergence, visual injury vs untreated controls after approx. 10 d, 0 = no effect, 100 = complete control, read-out: Galium plant response rating (0 to 100 scale)) turn out when `Cc1cc([C@H]2CNC(=O)[C@@H]2C(=O)Nc2ccccc2S(C)(=O)=O)ccc1Cl` [Compound 1246] was run?
A: 50%

Q: What about the pest or weed control at 500 g/ha [1, 4] of the same compound?
A: 60%

Q: And the pest or weed control at 125 g/ha (Kochia (Kochia scoparia); postemergence, visual injury vs untreated controls after approx. 10 d, 0 = no effect, 100 = complete control, read-out: Kochia plant response rating (0 to 100 scale))?
A: 0%

Q: What about the pest or weed control at 500 g/ha (Kochia (Kochia scoparia); [5]) of the same compound?
A: 20%

Q: What about the pest or weed control at 125 g/ha ([2]; postemergence, visual injury vs untreated controls after approx. 10 d, 0 = no effect, 100 = complete control, read-out: Barnyardgrass plant response rating (0 to 100 scale)) of the same compound?
A: 50%

Q: And the pest or weed control at 500 g/ha [2, 6]?
A: 80%

Q: What about the plant injury at 125 g/ha (corn (Zea mays); postemergence, visual injury vs untreated controls after approx. 10 d, 0 = no effect, 100 = complete control, read-out: Corn plant response rating (0 to 100 scale)) of the same compound?
A: 0%

Q: What about the Corn plant response rating (crop injury, 0 = no effect, 100 = complete kill) at 500 g/ha (corn (Zea mays); [7]) of the same compound?
A: 40%

Q: What about the pest or weed control at 125 g/ha ([3]; postemergence, visual injury vs untreated controls after approx. 10 d, 0 = no effect, 100 = complete control, read-out: Ragweed plant response rating (0 to 100 scale)) of the same compound?
A: 10%

Q: And the pest or weed control at 500 g/ha [3, 8]?
A: 60%

Q: With `O=C1NC[C@H](c2ccc3c(c2)OCO3)[C@H]1C(=O)Nc1ccccc1F` [Compound 767] as the compound, how does the pest or weed control at 125 g/ha [1, 23] read?
A: 0%

Q: And the pest or weed control at 125 g/ha (Kochia (Kochia scoparia); [24])?
A: 0%

Q: And the pest or weed control at 125 g/ha [2, 25]?
A: 70%

Q: What about the Corn plant response rating (crop injury, 0 = no effect, 100 = complete kill) at 125 g/ha (corn (Zea mays); [26]) of the same compound?
A: 0%

Q: What about the pest or weed control at 125 g/ha [3, 27] of the same compound?
A: 0%

Q: What does the source list for `O=C1NC[C@H](c2ccc3c(c2)OCO3)[C@H]1C(=O)Nc1cccc(F)c1F` [Compound 731]?
A: pest or weed control at 125 g/ha [1, 23]: 20%; pest or weed control at 125 g/ha (Kochia (Kochia scoparia); [24]): 0%; pest or weed control at 125 g/ha [2, 25]: 70%; Corn plant response rating (crop injury, 0 = no effect, 100 = complete kill) at 125 g/ha (corn (Zea mays); [26]): 0%; pest or weed control at 125 g/ha [3, 27]: 0%

Q: How did the pest or weed control at 125 g/ha [1, 14] turn out when `O=C(Nc1cccc(F)c1F)[C@H]1C(=O)N(O)CC[C@@H]1c1ccc(F)cc1` [Compound 805] was run?
A: 0%

Q: And the pest or weed control at 31 g/ha [1, 15]?
A: 0%

Q: And the pest or weed control at 125 g/ha (Kochia (Kochia scoparia); [16])?
A: 0%

Q: What about the pest or weed control at 31 g/ha (Kochia (Kochia scoparia); [17]) of the same compound?
A: 0%

Q: What about the pest or weed control at 125 g/ha [2, 18] of the same compound?
A: 0%

Q: What about the pest or weed control at 31 g/ha [2, 19] of the same compound?
A: 0%

Q: What about the plant injury at 125 g/ha (corn (Zea mays); [20]) of the same compound?
A: 0%

Q: What about the Corn plant response rating (crop injury, 0 = no effect, 100 = complete kill) at 31 g/ha (corn (Zea mays); Postemergence) of the same compound?
A: 0%

Q: What about the pest or weed control at 125 g/ha [3, 21] of the same compound?
A: 0%

Q: And the pest or weed control at 31 g/ha [3, 22]?
A: 0%
